Reference: paper PMC4515243, “Phase 1 pharmacokinetic study of the oral pan-AKT inhibitor MK-2206 in Japanese patients with advanced solid tumors” (Cancer Chemotherapy and Pharmacology, 2015)

Test system: Japanese patients with advanced solid tumors
Test: phase 1 safety and tolerability (DLT, adverse events) in Japanese patients;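 further: toxicities graded by NCI CTCAE version 3.0, treatment given until disease progression or unacceptable toxicity, three to nine patients enrolled per dose level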
[1] = 60 mg QOD, grade 3 mucosal inflammation

From the text: Treatment was continued until disease progression or the occurrence of an unacceptable toxicity.
A minimum of three and up to nine patients were enrolled at each dose level based on the toxicity probability intervals [9].
Adverse events were graded using the National Cancer Institute Common Terminology Criteria for Adverse Events, version 3.0.

NC1(c2ccc(-c3nc4ccn5c(=O)[nH]nc5c4cc3-c3ccccc3)cc2)CCC1 [MK-2206]
ALT increased, drug-related adverse event, patients (45 mg QOD (n = 3), All grades): 0 | Blood creatinine increased, drug-related adverse event, patients (45 mg QOD (n = 3), All grades): 1 | Decreased appetite, drug-related adverse event, patients (45 mg QOD (n = 3), All grades): 1 | Diarrhea, drug-related adverse event, patients (45 mg QOD (n = 3), All grades): 1 | Dry skin, drug-related adverse event, patients (45 mg QOD (n = 3), All grades): 2 | Eosinophil count increased, drug-related adverse event, patients (45 mg QOD (n = 3), All grades): 0 | Eosinophilia, drug-related adverse event, patients (45 mg QOD (n = 3), All grades): 2 | Erythema multiforme, drug-related adverse event, patients (45 mg QOD (n = 3), All grades): 0 | Fatigue, drug-related adverse event, patients (45 mg QOD (n = 3), All grades): 1 | HbA1C increased, drug-related adverse event, patients (45 mg QOD (n = 3), All grades): 0 | Hyperglycemia, drug-related adverse event, patients (45 mg QOD (n = 3), All grades): 1 | Hypernatremia, drug-related adverse event, patients (45 mg QOD (n = 3), All grades): 0 | Hypoalbuminemia, drug-related adverse event, patients (45 mg QOD (n = 3), All grades): 0 | Hypokalemia, drug-related adverse event, patients (45 mg QOD (n = 3), All grades): 0 | Insulin c-peptide increased, drug-related adverse event, patients (45 mg QOD (n = 3), All grades): 2 | Leukopenia, drug-related adverse event, patients (45 mg QOD (n = 3), All grades): 2 | Localized edema, drug-related adverse event, patients (45 mg QOD (n = 3), All grades): 0 | Lymphopenia, drug-related adverse event, patients (45 mg QOD (n = 3), All grades): 2 | Nausea, drug-related adverse event, patients (45 mg QOD (n = 3), All grades): 0 | Neutropenia, drug-related adverse event, patients (45 mg QOD (n = 3), All grades): 2 | Palmar-plantar erythrodysaesthesia syndrome, drug-related adverse event, patients (45 mg QOD (n = 3), All grades): 1 | Pruritus, drug-related adverse event, patients (45 mg QOD (n = 3), All grades): 1 | Pyrexia, drug-related adverse event, patients (45 mg QOD (n = 3), All grades): 1 | Rash, drug-related adverse event, patients (45 mg QOD (n = 3), All grades): 3 | Stomatitis, drug-related adverse event, patients (45 mg QOD (n = 3), All grades): 2 | Vomiting, drug-related adverse event, patients (45 mg QOD (n = 3), All grades): 0 | ALT increased, drug-related adverse event, patients (45 mg QOD (n = 3), Grades 3–5): 0 | Blood creatinine increased, drug-related adverse event, patients (45 mg QOD (n = 3), Grades 3–5): 0 | Decreased appetite, drug-related adverse event, patients (45 mg QOD (n = 3), Grades 3–5): 0 | Diarrhea, drug-related adverse event, patients (45 mg QOD (n = 3), Grades 3–5): 1 | Dry skin, drug-related adverse event, patients (45 mg QOD (n = 3), Grades 3–5): 0 | Eosinophil count increased, drug-related adverse event, patients (45 mg QOD (n = 3), Grades 3–5): 0 | Eosinophilia, drug-related adverse event, patients (45 mg QOD (n = 3), Grades 3–5): 0 | Erythema multiforme, drug-related adverse event, patients (45 mg QOD (n = 3), Grades 3–5): 0 | Fatigue, drug-related adverse event, patients (45 mg QOD (n = 3), Grades 3–5): 0 | HbA1C increased, drug-related adverse event, patients (45 mg QOD (n = 3), Grades 3–5): 0 | Hyperglycemia, drug-related adverse event, patients (45 mg QOD (n = 3), Grades 3–5): 0 | Hypernatremia, drug-related adverse event, patients (45 mg QOD (n = 3), Grades 3–5): 0 | Hypoalbuminemia, drug-related adverse event, patients (45 mg QOD (n = 3), Grades 3–5): 0 | Hypokalemia, drug-related adverse event, patients (45 mg QOD (n = 3), Grades 3–5): 0 | Insulin c-peptide increased, drug-related adverse event, patients (45 mg QOD (n = 3), Grades 3–5): 0 | Leukopenia, drug-related adverse event, patients (45 mg QOD (n = 3), Grades 3–5): 0 | Localized edema, drug-related adverse event, patients (45 mg QOD (n = 3), Grades 3–5): 0 | Lymphopenia, drug-related adverse event, patients (45 mg QOD (n = 3), Grades 3–5): 2 | Nausea, drug-related adverse event, patients (45 mg QOD (n = 3), Grades 3–5): 0 | Neutropenia, drug-related adverse event, patients (45 mg QOD (n = 3), Grades 3–5): 1 | Palmar-plantar erythrodysaesthesia syndrome, drug-related adverse event, patients (45 mg QOD (n = 3), Grades 3–5): 0 | Pruritus, drug-related adverse event, patients (45 mg QOD (n = 3), Grades 3–5): 0 | Pyrexia, drug-related adverse event, patients (45 mg QOD (n = 3), Grades 3–5): 0 | Rash, drug-related adverse event, patients (45 mg QOD (n = 3), Grades 3–5): 0 | Stomatitis, drug-related adverse event, patients (45 mg QOD (n = 3), Grades 3–5): 0 | Vomiting, drug-related adverse event, patients (45 mg QOD (n = 3), Grades 3–5): 0 | DLTs during Cycle 1 (45 mg QOD, three patients): No DLTs | ALT increased, drug-related adverse event, patients (60 mg QOD (n = 9), All grades): 1 | Blood creatinine increased, drug-related adverse event, patients (60 mg QOD (n = 9), All grades): 1 | Decreased appetite, drug-related adverse event, patients (60 mg QOD (n = 9), All grades): 1 | Diarrhea, drug-related adverse event, patients (60 mg QOD (n = 9), All grades): 5 | Dry skin, drug-related adverse event, patients (60 mg QOD (n = 9), All grades): 0 | Eosinophil count increased, drug-related adverse event, patients (60 mg QOD (n = 9), All grades): 0 | Eosinophilia, drug-related adverse event, patients (60 mg QOD (n = 9), All grades): 6 | Erythema multiforme, drug-related adverse event, patients (60 mg QOD (n = 9), All grades): 0 | Fatigue, drug-related adverse event, patients (60 mg QOD (n = 9), All grades): 4 | HbA1C increased, drug-related adverse event, patients (60 mg QOD (n = 9), All grades): 2 | Hyperglycemia, drug-related adverse event, patients (60 mg QOD (n = 9), All grades): 3 | Hypernatremia, drug-related adverse event, patients (60 mg QOD (n = 9), All grades): 1 | Hypoalbuminemia, drug-related adverse event, patients (60 mg QOD (n = 9), All grades): 2 | Hypokalemia, drug-related adverse event, patients (60 mg QOD (n = 9), All grades): 1 | Insulin c-peptide increased, drug-related adverse event, patients (60 mg QOD (n = 9), All grades): 7 | Leukopenia, drug-related adverse event, patients (60 mg QOD (n = 9), All grades): 2 | Localized edema, drug-related adverse event, patients (60 mg QOD (n = 9), All grades): 0 | Lymphopenia, drug-related adverse event, patients (60 mg QOD (n = 9), All grades): 5 | Nausea, drug-related adverse event, patients (60 mg QOD (n = 9), All grades): 1 | Neutropenia, drug-related adverse event, patients (60 mg QOD (n = 9), All grades): 2 | Palmar-plantar erythrodysaesthesia syndrome, drug-related adverse event, patients (60 mg QOD (n = 9), All grades): 1 | Pruritus, drug-related adverse event, patients (60 mg QOD (n = 9), All grades): 4 | Pyrexia, drug-related adverse event, patients (60 mg QOD (n = 9), All grades): 7 | Rash, drug-related adverse event, patients (60 mg QOD (n = 9), All grades): 9 | Stomatitis, drug-related adverse event, patients (60 mg QOD (n = 9), All grades): 6 | Vomiting, drug-related adverse event, patients (60 mg QOD (n = 9), All grades): 0 | ALT increased, drug-related adverse event, patients (60 mg QOD (n = 9), Grades 3–5): 0 | Blood creatinine increased, drug-related adverse event, patients (60 mg QOD (n = 9), Grades 3–5): 0 | Decreased appetite, drug-related adverse event, patients (60 mg QOD (n = 9), Grades 3–5): 0 | Diarrhea, drug-related adverse event, patients (60 mg QOD (n = 9), Grades 3–5): 0 | Dry skin, drug-related adverse event, patients (60 mg QOD (n = 9), Grades 3–5): 0 | Eosinophil count increased, drug-related adverse event, patients (60 mg QOD (n = 9), Grades 3–5): 0 | Eosinophilia, drug-related adverse event, patients (60 mg QOD (n = 9), Grades 3–5): 0 | Erythema multiforme, drug-related adverse event, patients (60 mg QOD (n = 9), Grades 3–5): 0 | Fatigue, drug-related adverse event, patients (60 mg QOD (n = 9), Grades 3–5): 0 | HbA1C increased, drug-related adverse event, patients (60 mg QOD (n = 9), Grades 3–5): 0 | Hyperglycemia, drug-related adverse event, patients (60 mg QOD (n = 9), Grades 3–5): 0 | Hypernatremia, drug-related adverse event, patients (60 mg QOD (n = 9), Grades 3–5): 0 | Hypoalbuminemia, drug-related adverse event, patients (60 mg QOD (n = 9), Grades 3–5): 0 | Hypokalemia, drug-related adverse event, patients (60 mg QOD (n = 9), Grades 3–5): 0 | Insulin c-peptide increased, drug-related adverse event, patients (60 mg QOD (n = 9), Grades 3–5): 0 | Leukopenia, drug-related adverse event, patients (60 mg QOD (n = 9), Grades 3–5): 0 | Localized edema, drug-related adverse event, patients (60 mg QOD (n = 9), Grades 3–5): 0 | Lymphopenia, drug-related adverse event, patients (60 mg QOD (n = 9), Grades 3–5): 2 | Nausea, drug-related adverse event, patients (60 mg QOD (n = 9), Grades 3–5): 0 | Neutropenia, drug-related adverse event, patients (60 mg QOD (n = 9), Grades 3–5): 0 | Palmar-plantar erythrodysaesthesia syndrome, drug-related adverse event, patients (60 mg QOD (n = 9), Grades 3–5): 0 | Pruritus, drug-related adverse event, patients (60 mg QOD (n = 9), Grades 3–5): 0 | Pyrexia, drug-related adverse event, patients (60 mg QOD (n = 9), Grades 3–5): 0 | Rash, drug-related adverse event, patients (60 mg QOD (n = 9), Grades 3–5): 1 | Stomatitis, drug-related adverse event, patients (60 mg QOD (n = 9), Grades 3–5): 0 | Vomiting, drug-related adverse event, patients (60 mg QOD (n = 9), Grades 3–5): 0 | patients with DLT during Cycle 1 [1]: One of the nine | time until the onset of the DLT after the start of treatment [1]: 28 days | DLTs during Cycle 1 (135 mg QW): no DLTs | ALT increased, drug-related adverse event, patients (135 mg QW (n = 3), All grades): 0 | Blood creatinine increased, drug-related adverse event, patients (135 mg QW (n = 3), All grades): 0 | Decreased appetite, drug-related adverse event, patients (135 mg QW (n = 3), All grades): 1 | Diarrhea, drug-related adverse event, patients (135 mg QW (n = 3), All grades): 1 | Dry skin, drug-related adverse event, patients (135 mg QW (n = 3), All grades): 1 | Eosinophil count increased, drug-related adverse event, patients (135 mg QW (n = 3), All grades): 2 | Eosinophilia, drug-related adverse event, patients (135 mg QW (n = 3), All grades): 1 | Erythema multiforme, drug-related adverse event, patients (135 mg QW (n = 3), All grades): 0 | Fatigue, drug-related adverse event, patients (135 mg QW (n = 3), All grades): 1 | HbA1C increased, drug-related adverse event, patients (135 mg QW (n = 3), All grades): 1 | Hyperglycemia, drug-related adverse event, patients (135 mg QW (n = 3), All grades): 2 | Hypernatremia, drug-related adverse event, patients (135 mg QW (n = 3), All grades): 0 | Hypoalbuminemia, drug-related adverse event, patients (135 mg QW (n = 3), All grades): 0 | Hypokalemia, drug-related adverse event, patients (135 mg QW (n = 3), All grades): 1 | Insulin c-peptide increased, drug-related adverse event, patients (135 mg QW (n = 3), All grades): 2 | Leukopenia, drug-related adverse event, patients (135 mg QW (n = 3), All grades): 0 | Localized edema, drug-related adverse event, patients (135 mg QW (n = 3), All grades): 0 | Lymphopenia, drug-related adverse event, patients (135 mg QW (n = 3), All grades): 0 | Nausea, drug-related adverse event, patients (135 mg QW (n = 3), All grades): 1 | Neutropenia, drug-related adverse event, patients (135 mg QW (n = 3), All grades): 1 | Palmar-plantar erythrodysaesthesia syndrome, drug-related adverse event, patients (135 mg QW (n = 3), All grades): 0 | Pruritus, drug-related adverse event, patients (135 mg QW (n = 3), All grades): 0 | Pyrexia, drug-related adverse event, patients (135 mg QW (n = 3), All grades): 0 | Rash, drug-related adverse event, patients (135 mg QW (n = 3), All grades): 2 | Stomatitis, drug-related adverse event, patients (135 mg QW (n = 3), All grades): 0 | Vomiting, drug-related adverse event, patients (135 mg QW (n = 3), All grades): 1 | ALT increased, drug-related adverse event, patients (135 mg QW (n = 3), Grades 3–5): 0 | Blood creatinine increased, drug-related adverse event, patients (135 mg QW (n = 3), Grades 3–5): 0 | Decreased appetite, drug-related adverse event, patients (135 mg QW (n = 3), Grades 3–5): 0 | Diarrhea, drug-related adverse event, patients (135 mg QW (n = 3), Grades 3–5): 0 | Dry skin, drug-related adverse event, patients (135 mg QW (n = 3), Grades 3–5): 0 | Eosinophil count increased, drug-related adverse event, patients (135 mg QW (n = 3), Grades 3–5): 0
